Calls of active or inactive are those of the source. The rule behind the calls is not given here.
Tests used:
Mus musculus [1] = test: Analgesic activity in sc dosed ddY mouse assessed as protection against acetic acid-induced writhing; type: functional
Mu-type opioid receptor [2] = target: T1, Mu-type opioid receptor (Homo sapiens, UniProt P35372); test: Agonist activity at human Gi/G0-coupled mu opioid receptor expressed in human U2OS cells co-expressing EA-tagged beta-arrestin2 assessed as beta-arrestin 2 recruitment by PathHunter assay; type: cell-based
T1 sequence (P35372 whole entry): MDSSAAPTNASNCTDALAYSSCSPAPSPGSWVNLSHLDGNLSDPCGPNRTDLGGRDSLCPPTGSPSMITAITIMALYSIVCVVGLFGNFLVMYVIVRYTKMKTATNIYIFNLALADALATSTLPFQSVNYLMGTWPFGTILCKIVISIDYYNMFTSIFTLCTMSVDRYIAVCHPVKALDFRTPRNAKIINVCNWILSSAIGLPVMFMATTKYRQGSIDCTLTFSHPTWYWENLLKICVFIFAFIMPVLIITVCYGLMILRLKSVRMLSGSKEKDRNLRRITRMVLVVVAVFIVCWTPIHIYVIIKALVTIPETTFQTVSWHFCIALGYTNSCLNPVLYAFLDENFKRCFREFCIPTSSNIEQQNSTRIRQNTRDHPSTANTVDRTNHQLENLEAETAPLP

[3] = Plasma concentration in ddY mouse at 30 mg/kg, sc; type: ADME, organism-based; conditions: in vivo; also: time not given here
[4] = Toxicity in sc dosed ddY mouse assessed as effect on locomotor activity; type: organism-based; conditions: in vivo
Mus musculus [5] = test: Analgesic activity in sc dosed ddY mouse assessed as tail flicking; type: functional
Cytochrome P450 = test: Metabolic stability in human cytochrome P450 assessed as parent compound remaining; type: ADME, protein assay; also: time not given here
[6] = Metabolic stability in mouse cytochrome P450 assessed as parent compound remaining; type: ADME; also: time not given here
[7] = Lipophilicity, log D of compound; type: physicochemical; conditions: octanol/water
[8] = Permeability of compound by PAMPA; type: ADME
[9] = Protein binding in mouse; type: ADME, organism-based; conditions: in vivo, read-out: PB (converted)
[10] = Half life in mouse at 10 mg/kg; type: ADME, organism-based; conditions: in vivo
[11] = Clearance in mouse at 10 mg/kg; type: ADME, organism-based; conditions: in vivo
[12] = Apparent clearance in mouse at 10 mg/kg; type: ADME, organism-based; conditions: in vivo
[13] = Oral bioavailability in mouse at 10 mg/kg; type: ADME, organism-based; conditions: in vivo
[14] = Drug concentration in ddY mouse brain at 10 mg/kg; type: ADME, organism-based; conditions: in vivo, read-out: Ct; also: time not given here
Mu-type opioid receptor [15] = target: T1, Mu-type opioid receptor; test: Binding affinity to mu opioid receptor (unknown origin)
[16] = Drug concentration in ddY mouse brain at 30 mg/kg, sc; type: ADME, organism-based; conditions: in vivo, read-out: Ct; also: time not given here
Mus musculus [17] = test: Analgesic activity in ddY mouse assessed as tail flicking at 30 mg/kg, sc relative to control; type: functional
Mus musculus [18] = test: Analgesic activity in ddY mouse assessed as protection against acetic acid-induced writhing at 30 mg/kg, sc relative to control; type: functional
Mus musculus [19] = test: Analgesic activity in ddY mouse assessed as tail flicking at 300 mg/kg, sc; type: functional, organism-based
[20] = Toxicity in ddY mouse assessed as hyperactivity at 10 mg/kg, sc; type: organism-based; conditions: in vivo
Mus musculus [21] = test: Analgesic activity in ddY mouse assessed as protection against acetic acid-induced writhing at 3 mg/kg, sc relative to control; type: functional

Row | Compound | ED50 (Mus musculus [1]) | EC50 (Mu-type opioid receptor [2]) | concentration [3] | ED50 (Mus musculus [5]) | concentration [16] | MPE (Mus musculus [17]) | Activity (Mus musculus [18]) | other results
1 | CN1Cc2ccccc2CN2CC[C@@]1(c1ccccc1)C2 | 2 mg/kg | > 20 µM | 0.7 µM | 17 mg/kg |  |  |  | ID50 [4]: 15 mg/kg; Stabilty (Cytochrome P450): 72%; Stabilty [6]: 1%; logD [7]: 3; permeability [8]: Permeable; fraction unbound [9]: 0.16; half-life [10]: 1.06 h; clearance [11]: 261 mL/min/kg; CL/F [12]: 264 mL/min/kg; bioavailability [13]: 55.2%; concentration [14]: 16.3 µM; Ki (Mu-type opioid receptor [15]): 1.33 µM
2 | CC(=O)N1Cc2ccccc2CN2CC[C@@]1(c1ccccc1)C2 | 31 mg/kg | > 20 µM | 7.8 µM | > 30 mg/kg | 6.3 µM | 4.9% |  | 
3 | CN1Cc2cccc(O)c2CN2CC[C@@]1(c1ccccc1)C2 | < 30 mg/kg | > 20 µM | 0.77 µM | > 30 mg/kg | 13 µM | 6% | 93% | 
4 | COc1ccc2c(c1)CN1CC[C@@](c3ccccc3)(C1)N(C)C2 | < 30 mg/kg | > 20 µM | 2.2 µM | > 30 mg/kg | 24.8 µM | 36% | 59% | 
5 | O=C1N[C@@]2(c3ccccc3)CCN(Cc3ccccc31)C2 | > 30 mg/kg |  | 4.4 µM |  | 11.2 µM |  | 23% | Activity (Mus musculus [19]): inactive
6 | OCCN1Cc2ccccc2CN2CC[C@@]1(c1ccccc1)C2 | 18.2 mg/kg | > 20 µM | 2.7 µM | > 30 mg/kg | 21.8 µM | 18% |  | ID50 [4]: 37 mg/kg
7 | CN1Cc2ccc(O)cc2CN2CC[C@@]1(c1ccccc1)C2 |  | 2.4 µM | 1.5 µM |  | 19.4 µM |  | 100% | 
8 | O=C1N[C@]2(c3ccccc3)CCN(Cc3ccccc31)C2 | < 30 mg/kg |  | 3.5 µM |  | 7.7 µM |  | 23% | 
9 | c1ccc([C@@]23CCN(Cc4ccccc4CN2)C3)cc1 | < 30 mg/kg | > 20 µM | 2.2 µM | > 30 mg/kg | 49.2 µM | 19% | 72% | 
10 | COc1cccc2c1CN1CC[C@@](c3ccccc3)(C1)N(C)C2 | < 30 mg/kg | > 20 µM | 3.1 µM | 16 mg/kg | 31.1 µM |  | 100% | ID50 [4]: 19 mg/kg
11 | COc1cccc2c1CN(C)[C@@]1(c3ccccc3)CCN(C2)C1 | > 30 mg/kg | > 20 µM | 13.4 µM |  | 6.2 µM |  | 9.2% | 
12 | CN1Cc2cc(O)ccc2CN2CC[C@@]1(c1ccccc1)C2 | 4.6 mg/kg | > 20 µM | 0.74 µM | 6.2 mg/kg | 8.33 µM |  |  | ID50 [4]: 5.2 mg/kg
13 | CCN1Cc2ccccc2CN2CC[C@@]1(c1ccccc1)C2 | < 30 mg/kg | 4 µM | 1.8 µM | > 10 mg/kg | 33.3 µM | 43% | 100% | 
14 | CCC(=O)N1Cc2ccccc2CN2CC[C@@]1(c1ccccc1)C2 | ≥ 30 mg/kg | > 20 µM | 5 µM |  | 8.4 µM |  | 87% | 
15 | CN1Cc2ccccc2CN2CC[C@]1(c1ccccc1)C2 | 1 mg/kg | 3 µM | 0.75 µM | 1.7 mg/kg |  |  |  | Activity [20]: Toxic; concentration [14]: 15.6 µM
16 | CN1Cc2c(O)cccc2CN2CC[C@@]1(c1ccccc1)C2 | < 30 mg/kg | > 20 µM | 1.9 µM |  | 18.9 µM |  | 56% | 
17 | CN(C)C(=O)CN1Cc2ccccc2CN2CC[C@@]1(c1ccccc1)C2 | > 30 mg/kg | > 20 µM | 4 µM |  | 5.3 µM |  | 52% | 
18 | CCCN1Cc2ccccc2CN2CCC1(c1ccccc1)C2 (racemic) | < 3 mg/kg | 0.7 µM |  |  |  |  |  | Activity (Mus musculus [21]): 100%
19 | COc1ccc2c(c1)CN(C)[C@@]1(c3ccccc3)CCN(C2)C1 | 11 mg/kg | > 20 µM | 0.73 µM | 18 mg/kg | 6.9 µM |  |  | ID50 [4]: 14 mg/kg
